According to ChEMBL document CHEMBL1147061, “Antidepressant binding site in a bacterial homologue of neurotransmitter transporters” (Nature, 2007):

How the values were obtained:
[1] = (§1) Binding affinity to Aquifex aeolicus sodium-coupled leucine transporter
Aquifex aeolicus [2] = assay: as §1
[3] = Inhibition of L-[3H]Leu uptake at Aquifex aeolicus sodium-coupled leucine transporter
[4] = Inhibition of L-[3H]Ala uptake at Aquifex aeolicus sodium-coupled leucine transporter
Aquifex aeolicus [5] = assay: Activity at Aquifex aeolicus sodium-coupled leucine transporter assessed as inhibition of L-[3H]Ala transport at 1 uM
Aquifex aeolicus [6] = assay: Activity at Aquifex aeolicus sodium-coupled leucine transporter assessed as inhibition of L-[3H]Ala transport at 20 uM
Aquifex aeolicus [7] = assay: Activity at Aquifex aeolicus sodium-coupled leucine transporter assessed as inhibition of L-[3H]Ala transport at 50 uM

Kd [1] | kcat (Aquifex aeolicus [2]) | IC50 [3] | IC50 [4] | Km (Aquifex aeolicus [5]) | Vmax (Aquifex aeolicus [5]) | Km (Aquifex aeolicus [6]) | Vmax (Aquifex aeolicus [6]) | Km (Aquifex aeolicus [7]) | Vmax (Aquifex aeolicus [7]) | Structure (SMILES)
0.02 µM | 0.000333 s⁻¹ | – | – | – | – | – | – | – | – | CC(C)C[C@H](N)C(=O)O [LEUCINE]
– | – | 250 µM | 4.7 µM | 0.42 µM | 1480 pmol/min/mg | 0.47 µM | 970 pmol/min/mg | 0.48 µM | 770 pmol/min/mg | CN(C)CCCN1c2ccccc2CCc2ccc(Cl)cc21 [CLOMIPRAMINE]
